Marks after values point to notes of the source that are not given here.
Tests used:
[1] = Photostability under fluorescent lamp, HPLC residual percentage (Experiment 10); type: physicochemical; details: fluorescent lamp about 4,000 lux, 28° C.
Method: To 25 mg of each of the test substances in Table 13 was added each of Mcllvain buffers adjusted to different pHs to give a total volume of 50 mL and distributed to transparent glass screw bottles (5 mL) with plastic screw caps equal to the number of the test substances by 2.0 mL. Under a fluorescent lamp with about 4,000 lux at 28° C., the glass screw bottles were allowed to lay along. Sodium adenosine N1-oxide 5′-phosphate and 5′-glucosyl adenosine N1-oxide were respectively analyzed on HPLC at the initiation of the test and at eight weeks after initiating the experiment, and at the initiation of the test and at two weeks intervals up to eight weeks after the initiation, followed by taking out one of the bottles for HPLC analysis. The analysis was repeated three times and the average residual percentage of each test substance was calculated based on the area ratio against the peak area for each test substance upon HPLC chromatogram at the initiation of the experiment. […] Equation: Residual percentage (%) of test substance=[(Average peak area after a prescribed time lapse at respective pHs for each test substance)/(Average peak area at the initiation of experiment at respective pHs for each test substance)]×100

elastin = assay: Elastin production of normal human dermal fibroblasts, colorimetric kit (Experiment 4); type: cell-based; details: 2 days, control = 100%
Method: Normal human dermal fibroblasts (NHDF), which had been suspended in a Dulbecco's Modified Eagle Medium supplemented with 10% fetal calf serum to give a cell concentration of 3×10^5 cells/mL, were placed in 24-well plates by 0.5 mL/well and cultured for one day. The cultured cells were washed with Dulbecco's phosphate buffered saline and cultured for another two days in a Dulbecco's Modified Eagle Medium, supplemented with any one of the test substances in Table 5 at respective concentrations shown in the table, to induce elastin synthesis. Thereafter, each culture supernatant was collected, and the remaining cells were washed with one milliliter of Dulbecco's phosphate buffered saline, added with 0.1 mL of 0.25% trypsin and ethylenediaminetetraacetate, followed by incubation at 37° C. for two minutes to detach the cells from the plates. A half milliliter of Dulbecco's phosphate buffered saline was added to each plate, and the resulting cell suspensions were collected in a 1.5-mL tube which was then subjected to centrifugation (3,000×g for five minutes) to collect the cells. Elastin was quantified with a colorimetric determination kit commercialized by Biocolor Ltd., […]. The previously collected supernatant was used to suspend the collected cells, to which was then added 0.16 mL of 1 M oxalic acid, a reagent affixed to the kit, and incubated at 100° C. for one hour to solubilize elastin. To the solubilized elastin placed in a container was added 0.66 mL of an elastin precipitant as a reagent affixed to the kit, mixed for 15 min while repeatedly reversing the container, and centrifuged at 10,000×g for 10 min to precipitate proteins. A half milliliter of a dye, as a reagent affixed to the kit, was added to the resulting precipitate, followed by repeatedly reversing the container for 90 min and centrifuged at 10,000×g for 10 min to collect sediments bound with the dye. Thereafter, the collected sediments were added with 0.25 mL of a dye separator as a reagent affixed to the kit, and mixed for one hour while repeatedly reversing a container with the resulting mixture, followed by determining the absorbance of the resulting mixture at a wavelength of 490 nm and calculating the amount of elastin per well. A calibration curve was generated with an accessory for the kit. A control system was provided by similarly treating normal human dermal fibroblasts (NHDF) without adding any test substance and determined for its absorbance at a wavelength of 490 nm. Regarding the absorbance as 100%, the production level of elastin of each test substance was comparatively evaluated based on the following equation. Equation: Production level of elastin (relative value (%))=[(Absorbance of a sample with any one of test substances)/(Absorbance of control)]×100
The experiment was repeated three times, and the data was compared to that of control with the Dunnett's multiple comparisons test. The symbol “*” means a level of significance of p<0.01.

endothelin-1 = assay: Endothelin-1 production after ultraviolet B irradiation, ELISA (Experiment 6); type: cell-based, human; details: for Production level of endothelin-1 (%): ultraviolet B 40 mJ/cm^2, control = 100%
Method: Normal human epidermal keratinocytes were proliferated to a confluent state at which the cells were grown over the entire bottom edge of each well of 96-well microplates by using “EpiLife”, a product name of a culture medium containing a growth factor for keratinocytes, commercialized by Life Technologies Corporation, CA, USA, and further cultured for another two days while replacing the medium with a fresh culture medium free of such a growth factor. Thereafter, the resulting cultures were added with sodium adenosine N1-oxide 5′-phosphate to give a concentration of 10, 20, or 50 μM, and allowed to stand for six hours. The cultured cells were washed with Hanks buffer, irradiated with ultraviolet B radiation at an intensity of 40 mJ/cm^2, and further cultured for 24 hours after the addition of a culture medium containing the growth factor. Endothelin-1 in the resulting supernatants was detected with an endothelin-1 specific ELISA kit, commercialized by R&D Systems Inc., MN, USA, colored with tetramethylbenzidine, and measured for absorbance at a wavelength of 450 nm. A control system was provided and similarly treated as above except for not adding sodium adenosine N1-oxide 5′-phosphate and then determined for the production level of endothelin-1 in the resulting culture supernatant to be regarded as 100%. The production level of endothelin-1 for each test substance was comparatively evaluated based on the following equation. Equation: Production level of endothelin-1 (relative value (%))=[(Absorbance of a sample with a test substance)/(Absorbance of control)]×100 The experiment was repeated three times, and the data was compared to that of control with the Dunnett's multiple comparisons test. The symbol “*” means a level of significance of p<0.01.

[2] = pH 4 to 5, at the initiation of experiment
[3] = pH 6 to 7, at the initiation of experiment
[4] = pH 8 to 9, at the initiation of experiment

Residual percentage (%) [1, 2] | Residual percentage (%) ([1]; pH 4 to 5, eight weeks) | Residual percentage (%) ([1]; pH 4 to 5, four weeks) | Residual percentage (%) ([1]; pH 4 to 5, six weeks) | Residual percentage (%) ([1]; pH 4 to 5, two weeks) | Residual percentage (%) [1, 3] | Residual percentage (%) ([1]; pH 6 to 7, eight weeks) | Residual percentage (%) ([1]; pH 6 to 7, four weeks) | Residual percentage (%) ([1]; pH 6 to 7, six weeks) | Residual percentage (%) ([1]; pH 6 to 7, two weeks) | Residual percentage (%) [1, 4] | Residual percentage (%) ([1]; pH 8 to 9, eight weeks) | Residual percentage (%) ([1]; pH 8 to 9, four weeks) | Residual percentage (%) ([1]; pH 8 to 9, six weeks) | Residual percentage (%) ([1]; pH 8 to 9, two weeks) | Compound | Production level of elastin (%) (elastin; 10 μM) | Production level of elastin (%) (elastin; 1 μM) | Production level of elastin (%) (elastin; 4 μM) | other results
100.0% | 9.8% | 27.3% | 9.7% | 51.7% | 100.0% | 34.3% | 57.7% | 40.8% | 79.1% | 100.0% | 24.0% | 47.8% | 35.4% | 70.7% | 5′-α-glucosyl adenosine N1-oxide [5′-α-Glucosyladenosine N1-oxide] |  |  |  | Residual percentage (%) ([1]; pH 4 to 5, eight weeks, listed as 5′-glucosyl adenosine N1-oxide): about 10%
 |  |  |  |  |  |  |  |  |  |  |  |  |  |  | Nc1ncnc2c1ncn2[C@@H]1O[C@H](COP(=O)(O)O)[C@@H](O)[C@H]1O [Adenosine 5′-phosphate, reference compound] | 114.4% |  |  | Production level of elastin (%) (elastin; 40 μM): 117.2%; Production level of elastin (%) (elastin; 100 μM): 120.0* %
100.0% | 24.6% | 47.2% | 25.2% | 68.8% | 100.0% | 66.2% | 81.6% | 71.3% | 90.6% | 100.0% | 63.1% | 77.2% | 68.2% | 83.7% | Nc1c2ncn([C@@H]3O[C@H](CO)[C@@H](O)[C@H]3O)c2nc[n+]1[O-] [Adenosine N1-oxide, adenosine N1-oxide] | 118.4* % | 108.8% | 114.8% | Residual percentage (%) ([1]; pH 4 to 5, eight weeks, listed as adenosine N1-oxide): about 25%; Production level of elastin (%) (elastin; 10 μM, listed as adenosine N1-oxide): about 120%

Compound | Residual percentage (%) [1, 2] | Residual percentage (%) ([1]; pH 4 to 5, eight weeks) | Residual percentage (%) ([1]; pH 4 to 5, four weeks) | Residual percentage (%) ([1]; pH 4 to 5, six weeks) | Residual percentage (%) ([1]; pH 4 to 5, two weeks) | Residual percentage (%) [1, 3] | Residual percentage (%) ([1]; pH 6 to 7, eight weeks) | Residual percentage (%) ([1]; pH 6 to 7, four weeks) | Residual percentage (%) ([1]; pH 6 to 7, six weeks) | Residual percentage (%) ([1]; pH 6 to 7, two weeks) | Residual percentage (%) [1, 4] | Residual percentage (%) ([1]; pH 8 to 9, eight weeks) | Residual percentage (%) ([1]; pH 8 to 9, four weeks) | Residual percentage (%) ([1]; pH 8 to 9, six weeks) | Residual percentage (%) ([1]; pH 8 to 9, two weeks) | Production level of elastin (%) (elastin; 10 μM) | Production level of elastin (%) (elastin; 1 μM) | Production level of elastin (%) (elastin; 4 μM) | other results
Nc1c2ncn([C@@H]3O[C@H](COP(=O)([O-])O)[C@@H](O)[C@H]3O)c2nc[n+]1[O-].[Na+] [Sodium adenosine N1-oxide 5′-phosphate, sodium adenosine N1-oxide 5′-phosphate] | 100.0% | 93.0% |  |  |  | 100.0% | 88.8% |  |  |  | 100.0% | 96.9% |  |  |  | 121.2* % | 98.0% | 105.2% | Production level of endothelin-1 (%) (endothelin-1; 10 μM): 104.5%; Production level of endothelin-1 (%) (endothelin-1; 20 μM): 87.9%; production level of endothelin-1 reduced by (endothelin-1; 50 μM, compared to control): about 50%; Production level of endothelin-1 (%) (endothelin-1; 50 μM): 49.9* %; Production level of elastin (%) (elastin; 10 μM, listed as sodium adenosine N1-oxide 5′-phosphate): about 120%

Reference: patent US10071042B2, “External dermatological agent for anti-ageing” (Hayashibara Co., Ltd., priority 2014, dated 2018)
